According to US7122549B2, “Saframycins, analogues and uses thereof” (President and Fellows of Harvard College, priority 2000, dated 2006):
Like-named read-outs stand apart in the source and are kept apart here.

Key:
A-549 lung carcinoma = experiment: Cell Growth Inhibition Assay (MTS, CellTiter 96 AQueous); format: cell-based
Procedure: (§1) The two cell lines used, A375 malignant melanoma and A-549 lung carcinoma, were purchased from American Type Culture Collection. These cells were cultured at 37° C. in a humidified atmosphere of 5% CO2 in Dulbecco's Modified Eagle Medium (DMEM) supplemented with 10% fetal bovine serum (FBS), 0.1% glutamine and 0.1% penicillin-streptomycin. DMEM, FBS, glutamine and penicillin-streptomycin were purchased from Life Technologies (Grand Island, N.Y.).
(§2) Exponentially growing cells were seeded at ˜3000 (50 μl) cells per well in 96-well flat-bottomed microtiter plates and then incubated at 37° C. in a humidified atmosphere of 5% CO2/95% air for 24 hr. An analogue was dissolved in dimethyl sulfoxide to give a concentration of 0.6 mg/ml, which was further diluted with the culture medium containing 10% fetal bovine serum. Nine three-fold dilutions were prepared with the maximum concentration being 1/300 of the original DMSO solution (i.e. 2000 ng/ml). This procedure was repeated for each analogue. Fifty microliters of the obtained dilutions were each transferred into the well of the above described culture plate. The cell culture was then placed back into the incubator at 37° C. under the 5% CO2 atmosphere for 72 hr. Cell proliferation was quantified by using the CellTiter 96 AQueous Assay (Promega). In this assay a mixture solution (20 μl) of MTS [Owen's reagent: 3-(4,5-dimethylthiazol-2-yl)-5-(3-carbomethoxyphenyl)-2-(4-sulfophenyl)-2H-tetrazolium inner salt] and phenazine methosulfate (PMS) was added to each well. The resulting mixtures were further incubated for 2.5 hr. The absorbance was measured with a microplate reader at a test wavelength of 540 nm and a reference wavelength of 655 nm to serve as an index of the number of viable cells. The inhibitory ratio of the test compound was calculated according to the following formula: inhibition ratio (%)=100×(C−T)/C, where T is an absorbance of the well containing a test compound and C is an absorbance of the well containing no test compound. The IC50 was calculated by the least squares method.

A375 malignant melanoma = experiment: as above; format: cell-based
Procedure: as §1, §2

[1] = Homo sapiens, Table 1, A549 cells, 72 hr with compound, MTS readout, read-out: IC50, nM A549
[2] = Homo sapiens, A-375, Table 1, A375 cells, 72 hr with compound, MTS readout, read-out: IC50, nM A375
[3] = Homo sapiens, A549, 72 h, read-out: IC50, nM A549
[4] = Homo sapiens, A-375, 72 h, read-out: IC50, nM A375
[5] = Homo sapiens, Table 3, A549 cells, 72 hr with compound, MTS readout, read-out: IC50 (nM) Cell line A549-Lung
[6] = Homo sapiens, A-375, Table 3, A375 cells, 72 hr with compound, MTS readout, read-out: IC50 (nM) Cell line A375-Melanoma
[7] = Homo sapiens, Table 2, A549 cells, 72 hr with compound, MTS readout, read-out: IC50 (nM) Cell line A549-Lung
[8] = Homo sapiens, A-375, Table 2, A375 cells, 72 hr with compound, MTS readout, read-out: IC50 (nM) Cell line A375-Melanoma

SMILES | IC50 (A-549 lung carcinoma; [1]) [nM] | IC50 (A375 malignant melanoma; [2]) [nM] | other results
NC(=O)c1cccc2ccccc12 | 390 | 43 | 
NC(=O)c1ccccn1 | 40 | 3.3 | 
COc1c(C)c(OC)c2c(c1O)[C@@H]1[C@@H]3Cc4c(OC)c(C)c(OC)c(O)c4[C@H](CNC(=O)c4ccccc4F)N3[C@@H](C#N)[C@H](C2)N1C [drawing 136 R = F, 2-Fluorobenzamide derivative] | 37 | 2.5 | 
NC(=O)c1cnccn1 | 100 | 4.4 | 
NC(=O)Nc1ccccc1 | 890 | 37 | 
NC(=O)[C@@H]1Cc2ccccc2CN1 | 200 | 8.3 | 
COc1ccc(OC(N)=O)cc1 |  |  | IC50 (A-549 lung carcinoma; [3]): 96 nM; IC50 (A375 malignant melanoma; [4]): 3.4 nM
NC(=O)c1ncc(Br)c2ccccc12 | 25 | 9.2 | 
COc1c(C)c(OC)c2c(c1O)[C@@H]1[C@@H]3Cc4c(OC)c(C)c(OC)c(O)c4[C@H](CNC(=O)c4ccc5cc(OCCCCNC(=O)CCCCCNC(=O)CCCCCNC(=O)CCCC[C@@H]6SC[C@@H]7NC(=O)N[C@@H]76)ccc5n4)N3[C@@H](C#N)[C@H](C2)N1C [Biotinylated derivative, Biotinylated Quinalascidin Analog 1] |  |  | IC50 (A-549 lung carcinoma; Homo sapiens, A549, 72 h, read-out: IC50 (nM) Cell line A549-Lung): 990 nM; IC50 (A375 malignant melanoma; Homo sapiens, A-375, 72 h, read-out: IC50 (nM) Cell line A375-Melanoma): 210 nM
NC(=O)c1cc2ccccc2[nH]1 | 31 | 2.7 | 
NC(=O)c1cc(O)c2ccc(Cl)cc2n1 | 42 | 7.5 | 
NC(=O)c1c[nH]c2ccccc12 | 1200 | 76 | 
NC(=O)/C=C/c1ccccc1 | 44 | 2.9 | 
COc1c(C)c(OC)c2c(c1O)[C@@H]1[C@@H]3Cc4c(OC)c(C)c(OC)c(O)c4[C@H](CNC(=O)c4ccccc4)N3[C@@H](C#N)[C@H](C2)N1C [drawing 136 R = H, Benzamide derivative] | 91 | 4.1 | 
NC(=O)[C@H](Cc1c[nH]c2ccccc12)NC(=O)OCc1ccccc1 | 1100 | 96 | 
NC(=O)c1c(F)cccc1F | 395 | 12 | 
COc1c(C)c(OC)c2c(c1O)[C@@H]1[C@@H]3Cc4c(OC)c(C)c(OC)c(O)c4[C@H](CNC(=O)c4ccc5ccccc5n4)N3[C@@H](OC)[C@H](C2)N1C [drawing 172 X = OCH3, Methoxy derivative] |  |  | IC50 (A-549 lung carcinoma; [5]): 1100 nM; IC50 (A375 malignant melanoma; [6]): 120 nM
CC(=O)C(N)=O | 160 | 4.5 | 
COc1c(C)c(OC)c2c(c1O)[C@@H]1[C@@H]3Cc4c(OC)c(C)c(OC)c(O)c4[C@H](CNC(=O)c4ccc5cc(OCCCCN)ccc5n4)N3[C@@H](C#N)[C@H](C2)N1C |  |  | IC50 (A-549 lung carcinoma; [7]): 118 nM; IC50 (A375 malignant melanoma; [8]): 29 nM
NC(=O)C(=O)Cc1ccccc1 | 39 | 2.4 | 
O=C1NC(=O)c2ncccc21 | > 510 | > 510 | 
CCCCC[C@H]1c2c(O)c(OC)c(C)c(OC)c2C[C@H]2[C@H]3c4c(O)c(OC)c(C)c(OC)c4C[C@@H]([C@H](C#N)N12)N3C |  |  | IC50 (A-549 lung carcinoma; [7]): 1400 nM; IC50 (A375 malignant melanoma; [8]): 116 nM
NC(=O)OCc1ccccc1 |  |  | IC50 (A-549 lung carcinoma; [3]): 50 nM; IC50 (A375 malignant melanoma; [4]): 3.9 nM
NC(=O)c1ccco1 | 290 | 13 | 
NC(=O)c1cc2cc(F)ccc2[nH]1 | 26 | 2.5 | 

SMILES | IC50 (A-549 lung carcinoma; [1]) [nM] | IC50 (A375 malignant melanoma; [2]) [nM] | other results
COc1c(C)c(OC)c2c(c1O)[C@@H]1[C@@H]3Cc4c(OC)c(C)c(OC)c(O)c4[C@H](CNC(=O)c4ccc5cc(Cl)ccc5n4)N3[C@@H](C#N)[C@H](C2)N1C [drawing 162 R = Cl (14), 6-Chloroquinoline-2-carboxylic acid amide derivative] | 4.1 | 1.5 | 
NC(=O)[C@@H](N)Cc1c[nH]c2ccccc12 | > 1400 | 310 | 
NC(=O)c1cccc2[nH]ccc12 | 1100 | 85 | 
NC(=O)c1c(O)ccc2ccccc12 | 320 | 23 | 
NC(=O)C(=O)c1c[nH]c2ccccc12 |  |  | IC50 (A-549 lung carcinoma; [3]): 110 nM; IC50 (A375 malignant melanoma; [4]): 9.6 nM
NCc1ccccn1 | 700 | 260 | 
NCc1ccccc1 | 1100 | 330 | 
NC(=O)Cc1ccccc1 |  |  | IC50 (A-549 lung carcinoma; [3]): 1200 nM; IC50 (A375 malignant melanoma; [4]): 34 nM
COc1c(C)c(OC)c2c(c1O)[C@@H]1[C@@H]3Cc4c(OC)c(C)c(OC)c(O)c4[C@H](CNC(=O)c4ccc5ccccc5n4)N3[C@@H](O)[C@H](C2)N1C [drawing 172 X = OH, Hemiaminal derivative] |  |  | IC50 (A-549 lung carcinoma; [5]): 13 nM; IC50 (A375 malignant melanoma; [6]): 0.9 nM
O=C1NC(=O)c2ccccc21 | 9.2 | 1.7 | 
NC(=O)C1NCCc2ccccc21 (stereo not drawn) |  | 3440 | 
COc1c(C)c(OC)c2c(c1O)[C@@H]1[C@@H]3Cc4c(OC)c(C)c(OC)c(O)c4[C@H](CNC(=O)c4ccccc4-c4ccccc4)N3[C@@H](C#N)[C@H](C2)N1C [drawing 136 R = Phenyl, Biphenyl-2-carboxylic acid amide derivative] | 330 | 34 | 
COc1cc(C(N)=O)cc(OC)c1OC | 390 | 14 | 
Cc1ccc2ccc(C(N)=O)nc2c1 | 4.6 | 1.4 | 
NC(=O)c1c(F)c(F)c(F)c(F)c1F | 100 | 8.5 | 
Cc1ccc(C(N)=O)c(O)c1 | 6.5 | 1.2 | 
NC(=O)c1ncccc1O | 11.3 | 1.2 | 
NC(=O)c1cnc2ccccc2n1 | 4.7 | 1.2 | 
NC(=O)c1nccc2ccccc12 | 32 | 2.5 | 
NC(=O)c1cc(O)c2cc(Cl)ccc2n1 | 74 | 13 | 
COC1=C(C)C(=O)C2=C(C1=O)[C@@H]1[C@@H]3CC4=C(C(=O)C(OC)=C(C)C4=O)[C@H](CNC(=O)C(C)=O)N3[C@@H](C#N)[C@H](C2)N1C [Saframycin A, (−)-Saframycin A, reference compound] |  |  | IC50 (A-549 lung carcinoma; Table 1, A549 cells, 72 hr with compound, MTS readout, read-out: IC50, nM A549): 133 nM; IC50 (A375 malignant melanoma; Table 1, A375 cells, 72 hr with compound, MTS readout, read-out: IC50, nM A375): 5.3 nM
COc1cccc(C(N)=O)c1 | 99 | 4.1 | 
COc1c(C)c(OC)c2c(c1O)[C@@H]1[C@@H]3Cc4c(OC)c(C)c(OC)c(O)c4[C@H](CNC(=O)c4ccc5ccccc5n4)N3C[C@H](C2)N1C [drawing 172 X = H, Reduced quinalascidin analog] |  |  | IC50 (A-549 lung carcinoma; [5]): > 9000 nM; IC50 (A375 malignant melanoma; [6]): > 9000 nM
Cc1ccc(S(N)(=O)=O)cc1 | 860 | 81 | 
COc1c(C)c(OC)c2c(c1O)[C@@H]1[C@@H]3Cc4c(OC)c(C)c(OC)c(O)c4[C@H](CN(Cc4ccccn4)Cc4ccccn4)N3[C@@H](C#N)[C@H](C2)N1C [N-(Pyr)2, bis-2-Pyridyl Derivative] | > 1400 | > 1400 | 
